The test system of one experiment is S. aureus strain. Briefly: Bacterial growth in vitro / MIC. It counts as cell-based.
In a further experiment the test system is RNAIII. Briefly: RNAIII production in S. aureus cells containing rnaiii::blaZ fusion construct, measured as β-lactamase activity. It counts as cell-based. The note with it: for inhibition of RNAIII synthesis (in words): 0-50 μg. The protocol:
RNAIII levels were determined as β-lactamase activity (reporter gene product) and denoted as Vmax.
To test if hamamelitannin is a quorum sensing inhibitor and thus suppresses RNAIII synthesis, 2×10^7 cells were incubated with increasing amounts (0-50 μg) of hamamelitannin (or RIP). RNAIII levels were measured as β-lactamase activity as a reporter gene product by the addition of nitrocefin as substrate. […] Hamamelitannin (2′,5-di-O-galloyl hamamelose) was purchased from Chromadex, Inc. (93% purity, as assessed by HPLC by the manufacturer). Hamamelitannin was dissolved in water at 25 mg/ml and stored at −70° C. until use.

The next experiment concerns S. aureus cells. Briefly: S. aureus cell attachment in vitro in polystyrene plates. It counts as cell-based. As to conditions: for reduction of cell attachment (in words): 0-50 μg, 3 hrs at 37° C., OD 595 nm; for amount most effective in reducing cell attachment: converted dose. The method, then:
Attached cells were stained and OD595nm was determined.
To test for the effect of hamamelitannin on bacterial attachment in vitro, S. aureus cells were incubated with 0-50 μg hamamelitannin or RIP in polystyrene plates for 3 hrs at 37° C. Adherent bacteria were stained with methylene blue and OD determined at 595 nm.

Experiment [1] deals with MRSE. Briefly: Rat graft-associated infection, bacteria pre-incubated with agent, MRSE challenge. As to conditions: for amount that could prevent an infection: infection caused by 2×10^7 CFU MRSE, rat graft. In kind it is in vivo, S. epidermidis. The protocol: (§1) FIG. 6 is a graph presentation of the effectiveness of bacterial graft-associated infection inhibition by hamamelitannin and RIP against challenge by methicillin resistant S. aureus and S. epidermidis (MRSA and MRSE) using pre-incubation.
(§2) To measure the amount of hamamelitannin necessary to prevent device-associated infections, bacteria (2×10^7 MRSA or MRSE) were pre-incubated with increasing amounts of hamamelitannin for 30 min at room temperature. Grafts were implanted and rats were challenged with the pre-incubated bacteria. Seven days later the graft was removed and bacterial load determined. […] No bacteria was found when either MRSA or MRSE were pre-incubated with >20 μg hamamelitannin.
(§3) In the testing reflected in FIG. 6 and summarized above, to ascertain the amount of hamamelitannin/bacteria necessary to potentially prevent device-associated infections, bacteria (2×10^7 MRSE or MRSA in 150 μl saline) were pre-incubated with hamamelitannin (0, 0.5, 10, 20, 30, 50 μg) for 30 min at room temperature, as noted. Grafts were implanted and rats were challenged with the pre-incubated bacteria. Seven days later the graft was removed and bacterial load determined. […] When the bacteria was treated with 0.5, 10, 20, 30 or 50 μg hamamelitannin, MRSE load was 8.4×10^3±2.2×10^3 for 0.5 μg and 8.7×10^1±6.6×10^1 for 10 μg.

The subject of experiment [2] is MRSA. Briefly: Rat graft-associated infection, bacteria pre-incubated with agent, MRSA challenge. It counts as in vivo, S. aureus. The note with it: for amount that could prevent an infection: infection caused by 2×10^7 CFU MRSA, rat graft. The method, then: as §1, §2, §3
Experiment [3] concerns MRSE. Briefly: Rat graft-associated infection, local treatment (graft soak), MRSE challenge. It counts as in vivo, S. epidermidis. As to conditions: for bacterial load on graft: day 7. The protocol:
(§4) FIG. 7 is a graph presentation of the effectiveness of bacterial graft-associated infection inhibition by hamamelitannin against challenge by MRSA and MRSE using local treatment (graft soak).
(§5) To test if hamamelitannin could inhibit graft-associated infection, grafts (1 cm^2 collagen coated Dacron) were soaked for 1 h in increasing hamamelitannin concentrations. The graft was then implanted into the animal, and bacteria injected onto the graft. Seven days later the graft was removed and bacteria on the graft counted.

For experiment [4], the system named is MRSA. Briefly: Rat graft-associated infection, local treatment (graft soak), MRSA challenge. In kind it is in vivo, S. aureus. The protocol:
as §4, §5

The subject of experiment [5] is tumor necrosis factor α-mediated endothelial cell death. The note with it: cited from earlier work.
In experiment [6] the test system is cell damage induced by peroxides or UVB radiation. The note with it: cited from earlier work.

Several values for one entry are separate records, joined by “and”; a condition that tells them apart may be missing. Equal entries are not always repeated.

For the compound `CC1(C)S[C@@H]2[C@H](NC(=O)[C@H](N)c3ccccc3)C(=O)N2[C@H]1C(=O)O` [ampicillin, reference compound], the “MIC of ampicillin (reference drug)” value in the experiment with S. aureus strain (same S. aureus strain) was found to be 0.2 uM per 1000 bacteria.

On to `O=C(OC[C@H]1OC(O)[C@@](O)(COC(=O)c2cc(O)c(O)c(O)c2)[C@@H]1O)c1cc(O)c(O)c(O)c1` (stereo partly drawn) [hamamelitannin, 2′,5-di-O-galloyl hamamelose], for which the “minimal dose inhibiting RNAIII production” value in the experiment with RNAIII is on record as 0.2 picomoles per 1000 bacteria. Besides, in the experiment on RNAIII (2×10^7 cells, 2.5 hrs), the “inhibition of RNAIII synthesis (in words)” value is reported as “inhibits RNAIII synthesis in a dose dependent manner”. Besides, in the experiment with RNAIII (2×10^7 cells, 2.5 hrs), the “dose most effective in inhibiting RNAIII synthesis” value is recorded as > 2 μg/2×10^7 bacteria. For the same compound, the “reduction of cell attachment (in words)” value with S. aureus cells is on record as “reduced cell attachment in a dose-dependent manner”. In the experiment with S. aureus cells, the “amount most effective in reducing cell attachment” value is 0.4 picomoles/10^3 bacteria. Moreover, the “amount that could prevent an infection” value in the experiment with MRSE [1] and with MRSA [2] was 10 µg in each case. In addition, the “amount at which no bacteria was found on graft” value is > 20 µg with MRSE [1] (rat, 2×10^7 MRSE pre-incubated 30 min, graft removed after seven days) and > 20 µg in the experiment on MRSA [2] (rat, 2×10^7 MRSA pre-incubated 30 min, graft removed after seven days). Moreover, the “MRSE load on graft” value with MRSE [1] (rat, 2×10^7 MRSE pre-incubated with 0.5 μg, day 7) is reported as 8.4×10^3±2.2×10^3 CFU/ml; in the experiment with MRSE [1] (rat, 2×10^7 MRSE pre-incubated with 10 μg, day 7), 8.7×10^1±6.6×10^1 CFU/ml. Further, the “MRSE graft infection (in words)” value in the experiment on MRSE [1] (rat, 2×10^7 MRSE pre-incubated with 20, 30 or 50 μg, day 7) is reported as “No sign of infection”. Further, the “MRSA load on graft” value was 8.8×10^3±2.3×10^3 CFU/mL in the experiment on MRSA [2] (rat, 2×10^7 MRSA pre-incubated with 0.5 μg, day 7) and 3.6×10^2±0.8×10^2 CFU/mL in the experiment on MRSA [2] (rat, 2×10^7 MRSA pre-incubated with 10 μg, day 7). Moreover, the “MRSA graft infection (in words)” value with MRSA [2] (rat, 2×10^7 MRSA pre-incubated with 20, 30 or 50 μg, day 7) is recorded as “No sign of infection”. Moreover, the “bacterial load on graft” value is recorded as 9.0×10^4±2.6×10^4 CFU/mL in the experiment on MRSE [3] (MRSE, graft pre-soaked with 0.5 mg/L); 2.1×10^3±0.2×10^3 CFU/mL with MRSE [3] (MRSE, graft soaked with 10 mg/L); < 10 CFU/mL in the experiment on MRSE [3] (MRSE, graft soaked with 30 or 50 mg/L); 9.3×10^4±2.8×10^4 CFU/mL in the experiment with MRSA [4] (MRSA, graft soaked with 0.5 mg/L, day 7); 2.6×10^3±0.3×10^3 CFU/mL with MRSA [4] (MRSA, graft soaked with 10 mg/L, day 7); 3.7×10^1±1.1×10^1 CFU/mL in the experiment with MRSA [4] (MRSA, graft soaked with 20 mg/L, day 7). Also, the “pre-soak concentration at which grafts show no signs of infection” value in the experiment on MRSE [3] (challenge 2×10^7, MRSE) is “at least 30 mg/L and ~60 uM”; in the experiment with MRSA [4] (challenge 2×10^7, MRSA), “at least 30 mg/L and ~60 uM”. The “decrease in bacterial load versus untreated control (in words)” value with MRSE [3] (grafts presoaked 1 h, 0-50 mg/L, MRSE) was “Significant (p<0.05) decrease in bacterial load”; with MRSA [4] (grafts presoaked 1 h, 0-50 mg/L, MRSA) it was “Significant (p<0.05) decrease in bacterial load”. The “bacterial load on graft (in words)” value in the experiment with MRSA [4] (MRSA, graft pre-soaked in 30 or 50 mg/L, day 7) was “no bacterial load was detected”. For the same compound, the “concentration affecting bacterial growth in vitro (no effect even at concentrations as high as)” value with S. aureus strain (S. aureus) is given as > 2.5 mM per 1000 bacteria. In addition, the “highest concentration without effect on growth relative to the MIC of ampicillin” value in the experiment on S. aureus strain (same S. aureus strain) is on record as 13,000 times. The “concentration inhibiting tumor necrosis factor α-mediated endothelial cell death” value in [5] is reported as “less than 100 uM”. Further, the “minimum concentration with high protective activity against cell damage” value in [6] was 50 µM.

“RIP: RNAIII-inhibiting peptide, sequence YSPWTNF, antagonist of RAP [reference compound]”: the “minimal dose inhibiting RNAIII production” value in the experiment with RNAIII was 0.5 picomoles per 1000 bacteria. For the same compound, in the experiment with RNAIII (2×10^7 cells, 2.5 hrs), the “inhibition of RNAIII synthesis (in words)” value is “inhibited RNAIII production in a dose dependent manner” and the “dose most effective in inhibiting RNAIII synthesis” value was 8 μg/2×10^7 bacteria. For the same compound, the “dose most effective in inhibiting RNAIII synthesis” value in the experiment with RNAIII (converted dose) is 0.5 picomoles/10^3 bacteria. In the experiment with S. aureus cells, the “reduction of cell attachment (in words)” value is “reduced cell attachment in a dose-dependent manner” and the “amount most effective in reducing cell attachment” value came out at 0.4 picomoles/10^3 bacteria. Further, the “amount that could prevent an infection” value with MRSE [1] came out at 10 µg. In the experiment with MRSA [2], the “amount that could prevent an infection” value worked out at 10 µg.
